According to patent US12171229B2, “Heteroaryl-triazole and heteroaryl-tetrazole compounds as pesticides” (BAYER AKTIENGESELLSCHAFT, priority 2018, dated 2024):

What was measured:
Type in all cases: in vivo
Myzus persicae = Myzus persicae oral test; conditions: 120 h, 4 ppm, after 5 days
Method in brief: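 Aphid mortality (%) was recorded 5 days after a mixed Myzus persicae population began sucking, through parafilm, on compound solutions (acetone stock diluted with water) combined with sugar-supplemented IPL41 medium.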

[1] = tested on: Culex quinquefasciatus strain P00; experiment: Culex quinquefasciatus test (CULXFA surface treatment & contact assay); conditions: 24 hours after contact, read-out: efficacy (mortality); for mortality at 4 mg/m2: surface concentration 4 mg/m^2, exposure 30 minutes; for mortality at 20 mg/m2: surface concentration 20 mg/m^2, exposure 30 minutes
Method in brief: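 Compound dissolved in acetone (2 mg/ml) with 2000 ppm rapeseed oil methyl ester, applied to glazed tile and dried; adult C. quinquefasciatus strain P00 exposed to surface for 30 minutes. Mortality (%) scored 24 hours after contact.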

[2] = tested on: Musca domestica strain WHO-N; experiment: Musca domestica test (MUSCDO surface treatment & contact assay); conditions: 24 hours after contact, read-out: efficacy (mortality); for mortality at 20 mg/m2: surface concentration 20 mg/m^2, exposure 30 minutes
Method in brief: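 Adult WHO-N flies exposed for 30 minutes on a glazed tile coated with compound dissolved in acetone (2 mg/ml) with 2000 ppm rapeseed oil methyl ester, acetone evaporated. Percent mortality read 24 hours after contact.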

[3] = tested on: Aedes aegypti strain MONHEIM; experiment: Aedes aegypti test (AEDSAE surface treatment & contact assay); conditions: 24 hours after contact, read-out: efficacy (mortality); for mortality at 4 mg/m2: surface concentration 4 mg/m^2, exposure 30 minutes; for mortality at 20 mg/m2: surface concentration 20 mg/m^2, exposure 30 minutes
Method in brief: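 Compound dissolved in acetone (2 mg/ml) with 2000 ppm rapeseed oil methyl ester, applied to glazed tile and dried; adult strain MONHEIM mosquitoes exposed 30 minutes. Percent mortality scored 24 hours after contact.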

Nezara viridula = Nezara viridula spray test; conditions: 96 h, after 4 days, larvae on barley plants
Method in brief: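 Mortality (%) was assessed at day 4, from 0% (no bugs dead) to 100% (all dead). The spray solution was compound diluted to test concentration in water with 1000 ppm emulsifier and applied to barley carrying southern green stink bug larvae.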

Boophilus microplus = Boophilus microplus injection test; conditions: Rhipicephalus microplus, 168 h; 20 μg/animal injected into the abdomen; adult engorged female ticks; egg deposition after 7 days; read-out: efficacy (infertile eggs)
Method in brief: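 Efficacy, from 0% (all eggs fertile) to 100% (all infertile), was scored on eggs laid by five engorged adult females. Each female was injected intra-abdominally with 1 μl of compound solution in DMSO. Fertile egg laying was checked at 7 days, with uncertain eggs kept until hatching at about 42 days.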

[4] = tested on: Anopheles funestus strain FUMOZ-R; experiment: Anopheles funestus test (ANPHFU surface treatment & contact assay); conditions: surface concentration 4 mg/m^2, exposure 30 minutes, 24 hours after contact, read-out: efficacy (mortality)
Method in brief: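 Compound dissolved in acetone (2 mg/ml) with 2000 ppm rapeseed oil methyl ester and applied to a glazed tile. After acetone evaporation, adult FUMOZ-R mosquitoes were exposed to the dried surface for 30 min. Percent mortality was scored 24 h after contact.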

Ctenocephalides felis [5] = experiment: Ctenocephalides felis oral test; conditions: 48 h, 100 ppm in cattle blood, after 2 days, adult unfed cat fleas
Method in brief: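 Compound dissolved in DMSO and diluted in cattle blood to test concentration, offered to ~20 unfed adult fleas via a parafilm-sealed blood chamber held at 37° C (fleas at room temperature). Kill recorded at 2 days as % mortality.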

Ctenocephalides felis [6] = experiment: Ctenocephalides felis in-vitro contact test, adult cat flea; conditions: 5 μg/cm^2 (=500 g/ha), after 48 hours, adult cat fleas, read-out: efficacy (fleas dead or moribund)
Method in brief: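 Compound in acetone coated onto inner walls of glass tubes, e.g. 900 ppm giving 5 μg/cm². After drying, 5–10 adult C. felis added per tube and held at room temperature. At 48 h, fleas unable to escape a 45–50 °C heating plate within 5 min scored dead/moribund, giving % efficacy.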

Row | Structure (SMILES) | mortality at 4 ppm (Myzus persicae) | mortality at 4 mg/m2 [1] | mortality at 20 mg/m2 [1] | mortality at 20 mg/m2 [2] | mortality at 4 mg/m2 [3] | mortality at 20 mg/m2 [3] | mortality at 100 g/ha (Nezara viridula) | mortality at 500 g/ha (Nezara viridula) | pest or weed control at 0.02 mg (Boophilus microplus) | mortality at 4 mg/m2 [4] | mortality at 100 ppm (Ctenocephalides felis [5]) | pest or weed control at 5 µg/cm2 (Ctenocephalides felis [6]) | mortality at 4 mg/m2 ([2]; surface concentration 4 mg/m^2, exposure 30 minutes)
1 | C[C@H](NC(=O)c1cc(Cl)cc(C(F)(F)F)c1)c1ncnn1-c1ccc(NC(=O)C2CC2)cn1 [Example I-034, 3-chloro-N-[(1S)-1-(1-{5-[(cyclopropylcarbonyl)amino]pyridin-2-yl}-1H-1,2,4-triazol-5-yl)ethyl]-5-(trifluoromethyl)benzamide] | 100% | 90 to 100% | 90 to 100% | 90 to 100% | 90 to 100% | 90 to 100% | 100% | 100% | 100% | 85 to 100% | 100% | 100% | 
2 | C[C@H](NC(=O)c1cc(Cl)cc(S(F)(F)(F)(F)F)c1)c1ncnn1-c1ccc(C#N)cn1 [Example I-048] | 100% | 90 to 100% | 90 to 100% | 90 to 100% | 90 to 100% | 90 to 100% | 100% | 100% | 100% | 85 to 100% | 100% | 100% | 90 to 100%
